Legend:
bacterial strain LMB275 = assay: Sensitivity of the bacterial strain to antibiotics, disc diffusion method; type: cell-based, Aquabacterium strain LMB275; settings: modified R2A agar, 48 and 72 h at 30° C.
Experimental: The sensitivity of the bacterial strain to antibiotics was tested by the disc diffusion method after spreading cell suspensions (8.0 McFarland) on modified R2A agar plates. The antibiotics and their concentration used on filter-paper discs for the susceptibility assay are listed in the species definition. The effect of antibiotics on cell growth was assessed after 48 and 72 h at 30° C.

[1] = tested on: normal human epidermal keratinocytes (NHEK) stimulated by an inflammatory cytokine mix (IL-4+IL-13+IL-22+TNF-α); assay: Gene expression (RT-qPCR) in cytokine-stimulated normal human epidermal keratinocytes, in vitro model of chronic atopic dermatitis; type: cell-based
Experimental: The effects of the bacterial extracts prepared in example 3 (i.e., L0, BL0, S0 and ES0) on gene expression were assessed with normal human epidermal keratinocytes (NHEK) which have been stimulated by an inflammatory cytokine mix (IL-4+IL-13+IL-22+TNF-α), a particularly useful model representative of the chronic phase of atopic dermatitis.
Keratinocytes were seeded in 24-well plates and grown for 24 hours in growth medium with culture conditions at 37° C. and 5% C02. The growth medium comprised Keratinocyte SFM (Serum Free Medium) supplemented with Epidermal Growth Factor (EGF) 0.25 ng/ml, Pituitary extract (PE) 25 μg/ml and Gentamycin 25 μg/ml. The medium was then removed and replaced by assay medium containing either no added extract or compound (negative control), one of the bacterial extracts of example 3 (L0, BL0, S0 or ES0), or the reference compound (JAK Inhibitor | at 10 μM). Cells were then pre-incubated for 24 hours. The assay medium comprised Keratinocyte SFM supplemented with Gentamycin 25 μg/ml.
After pre-incubation, the assay medium was renewed, the mix of cytokines (IL-4+IL-13+TNF-α +IL-22, each at 10 ng/ml) added and the cells then incubated for 24 hours. Cytokine stimulation induces a phenotype in NHEK which is similar to the one observed during the chronic phase of atopic dermatitis (Bernard et al., 2012). In parallel, non-stimulated controls are performed.
All experiments were performed in triplicate (n=3).
Cells from the replicates of the same experimental condition were pooled.
Total RNA was extracted with TriPure Isolation Reagent® (Roche Molecular System Inc.) according to the supplier's instruction. The complementary DNA (cDNA) was synthetised by reverse transcription of total RNA in presence of oligo (dT) and Transcriptor Reverse Transcriptase (Roche Molecular System Inc.).
RT-qPCR (real time quantitative PCR) was used to analyse the expression of markers in total RNA extracted from the cell monolayers of each experimental condition. The LightCycler® system (Roche Molecular System Inc.) was used according to the supplier's instruction,
Two reference genes (GAPDH and RPS28) were used in the PCR array for data normalisation because of their constitutive expression. Consequently, the level of expression of the target markers was compared to the mean expression level of these 2 markers for all test conditions.
Different genes markers are reported: • barrier function, differentiation, lipid and desquamation markers: coding gene of Small Proline Rich Protein 1B (SPRR1B), coding gene of Kallikrein Related Peptidase 7 (KLK7), coding gene of Involucrin (IVL), coding gene of Caspase 14 (CASP14), coding gene of Sciellin (SCEL) and coding gene of sulfotransferase family, cytosolic, 2B, member 1 (SULT2B1); • antimicrobial and innate immunity markers: coding gene of serpin peptidase inhibitor, clade B, member 13 (SERPINB13), coding gene of calcium binding protein A7 (S100A7), coding gene of Toll-like receptor 2 (TLR2); • inflammation markers: coding gene of Chemokine (C-C motif) ligand 5 (CCL5), coding gene of Chemokine (C-C motif) ligand 27 (CCL27) and coding gene of interleukin 13 receptor, alpha 2 (IL13RA2).

[2] = NHEK, cytokine mix 10 ng/ml + JAK inhibitor I 10 μM, Mean HK normalisation
[3] = NHEK, cytokine mix 10 ng/ml + JAK inhibitor I 10 μM, Mean HK normalisation, 1440 min
[4] = cytokine-stimulated NHEK, JAK inhibitor I 10 μM
[5] = cytokine-stimulated NHEK, JAK inhibitor I 10 μM, listed as JAK Inhibitor I

O=C(O)c1cn(C2CC2)c2cc(N3CCNCC3)c(F)cc2c1=O [ciprofloxacin]
sensitivity of the bacterial strain to the antibiotic (bacterial strain LMB275; disc 5 μg): sensitive

CO[C@H]1/C=C/O[C@@]2(C)Oc3c(C)c(O)c4c(O)c(c(/C=N/N5CCN(C)CC5)c(O)c4c3C2=O)NC(=O)/C(C)=C\C=C\[C@H](C)[C@H](O)[C@@H](C)[C@@H](O)[C@@H](C)[C@H](OC(C)=O)[C@@H]1C [rifampicin]
sensitivity of the bacterial strain to the antibiotic (bacterial strain LMB275; disc 30 μg): sensitive

CC1(C)S[C@@H]2[C@H](NC(=O)[C@H](N)c3ccc(O)cc3)C(=O)N2[C@H]1C(=O)O [amoxicillin]
sensitivity of the bacterial strain to the antibiotic (bacterial strain LMB275; disc 30 μg): resistant

CC1COc2c(N3CCN(C)CC3)c(F)cc3c(=O)c(C(=O)O)cn1c23 (centres unmarked) [ofloxacin]
sensitivity of the bacterial strain to the antibiotic (bacterial strain LMB275; disc 5 μg): sensitive

[H]/N=C(/N)N[C@H]1[C@H](O)[C@@H](O)[C@H](O[C@@H]2O[C@@H](C)[C@](O)(C=O)[C@H]2O[C@@H]2O[C@@H](CO)[C@H](O)[C@@H](O)[C@@H]2NC)[C@@H](N/C(N)=N\[H])[C@@H]1O [streptomycin]
sensitivity of the bacterial strain to the antibiotic (bacterial strain LMB275; disc 10 μg): sensitive

CC1(C)S[C@@H]2[C@H](NC(=O)Cc3ccccc3)C(=O)N2[C@H]1C(=O)O [penicillin]
sensitivity of the bacterial strain to the antibiotic (bacterial strain LMB275; disc 10 UI): resistant

CC[C@H]1OC(=O)[C@H](C)[C@@H](O[C@H]2C[C@@](C)(OC)[C@@H](O)[C@H](C)O2)[C@H](C)[C@@H](O[C@@H]2O[C@H](C)C[C@H](N(C)C)[C@H]2O)[C@](C)(O)C[C@@H](C)C(=O)[C@H](C)[C@@H](O)[C@]1(C)O [erythromycin]
sensitivity of the bacterial strain to the antibiotic (bacterial strain LMB275; disc 15 μg): sensitive

NC[C@H]1O[C@H](O[C@H]2[C@H](O)[C@@H](O[C@H]3O[C@H](CO)[C@@H](O)[C@H](N)[C@H]3O)[C@H](N)C[C@@H]2N)[C@H](O)[C@@H](O)[C@@H]1O [kanamycin]
sensitivity of the bacterial strain to the antibiotic (bacterial strain LMB275; disc 30 μg): sensitive

CC(C)(C)c1nc2c3cc[nH]c(=O)c3c3cc(F)ccc3c2[nH]1 [JAK inhibitor I]
SPRR1B gene expression [1, 2]: 557 % control
SULT2B1 gene expression [1, 2]: 231 % control
CASP14 gene expression [1, 3]: 199 % control
CCL5 gene expression [1, 3]: 23 % control
CCL27 gene expression [1, 3]: 72 % control
IL13RA2 gene expression [1, 3]: 12 % control
IVL gene expression [1, 3]: 986 % control
KLK7 gene expression [1, 3]: 146 % control
S100A7 gene expression [1, 3]: 94 % control
SCEL gene expression [1, 3]: 141 % control
SERPINB13 gene expression [1, 3]: 27 % control
TLR2 gene expression [1, 3]: 21 % control
expression of antimicrobial and innate immunity markers (in words) [1, 4]: decrease
expression of inflammation markers (in words) [1, 4]: decrease
expression of keratinocyte differentiation markers (in words) [1, 4]: increase
expression of antimicrobial and innate immunity markers (in words) [1, 5]: down-regulating
expression of inflammation markers (in words) [1, 5]: down-regulating

O=C(N[C@H](CO)[C@H](O)c1ccc([N+](=O)[O-])cc1)C(Cl)Cl [chloramphenicol]
sensitivity of the bacterial strain to the antibiotic (bacterial strain LMB275; disc 30 μg): sensitive

CC1(C)S[C@@H]2[C@H](NC(=O)[C@H](N)c3ccccc3)C(=O)N2[C@H]1C(=O)O [ampicillin]
sensitivity of the bacterial strain to the antibiotic (bacterial strain LMB275; disc 10 μg): resistant

CN(C)[C@@H]1C(=O)C(C(N)=O)=C(O)[C@@]2(O)C(=O)C3=C(O)c4c(O)cccc4[C@@](C)(O)[C@H]3C[C@@H]12 [tetracyclin]
sensitivity of the bacterial strain to the antibiotic (bacterial strain LMB275; disc 30 μg): sensitive

CO/N=C(\C(=O)N[C@@H]1C(=O)N2C(C(=O)O)=C(COC(C)=O)CS[C@H]12)c1csc(N)n1 [cefotaxim]
sensitivity of the bacterial strain to the antibiotic (bacterial strain LMB275; disc 30 μg): resistant

CN[C@H](CC(C)C)C(=O)N[C@H]1C(=O)N[C@@H](CC(N)=O)C(=O)N[C@H]2C(=O)N[C@H]3C(=O)N[C@H](C(=O)N[C@H](C(=O)O)c4cc(O)cc(O)c4-c4cc3ccc4O)[C@H](O)c3ccc(c(Cl)c3)Oc3cc2cc(c3O[C@@H]2O[C@H](CO)[C@@H](O)[C@H](O)[C@H]2O[C@H]2C[C@](C)(N)[C@H](O)[C@H](C)O2)Oc2ccc(cc2Cl)[C@H]1O [vancomycin]
sensitivity of the bacterial strain to the antibiotic (bacterial strain LMB275; disc 30 μg): sensitive

polymixin B
sensitivity of the bacterial strain to the antibiotic (bacterial strain LMB275; disc 300 UI): resistant

C[C@@H](O)[C@H]1C(=O)N2C(C(=O)O)=C(SCCN=CN)C[C@H]12 [imipenem]
sensitivity of the bacterial strain to the antibiotic (bacterial strain LMB275; disc 10 μg): sensitive

Source: US20260286287A1, “NOVEL BACTERIAL STRAIN USEFUL FOR TREATING CUTANEOUS INFLAMMATION” (PIERRE FABRE DERMO-COSMETIQUE, priority 2023, published 2026)
